The NIST ThermoML archive (doi:10.1016/j.fluid.2011.06.011)

Test: xn = mol fraction of the nth substance listed
Conditions: Liquid; for speed of sound: Sing-around technique in a fixed-path interferometer; for mass density: Vibrating tube method

C=CC(C)(O)CCC=C(C)C (stereo unspecified) [3,7-dimethyl-1,6-octadien-3-ol] + CCO
Conditions | mass density, 283.15 K [kg/m3] | mass density, 298.15 K [kg/m3] | mass density, 313.15 K [kg/m3] | mass density, 328.15 K [kg/m3] | speed of sound, 283.15 K [m/s] | speed of sound, 298.15 K [m/s] | speed of sound, 313.15 K [m/s] | speed of sound, 328.15 K [m/s]
101 kPa, x1 = 0.0493 | – | – | – | – | – | – | – | 1070.8
101 kPa, x1 = 0.0506 | 809.66 | 797.07 | 784.31 | 770.91 | 1222 | – | – | –
101 kPa, x1 = 0.0507 | – | – | – | – | – | 1171.7 | 1122.4 | –
101 kPa, x1 = 0.0996 | – | – | – | – | – | – | 1142.3 | –
101 kPa, x1 = 0.1008 | 819.09 | 806.76 | 794.24 | 780.72 | 1245 | 1196.3 | – | 1095.1
101 kPa, x1 = 0.1969 | 833.37 | 821.08 | 808.41 | 795.22 | 1281 | 1229.2 | 1177.2 | 1125
101 kPa, x1 = 0.2884 | – | – | 818.41 | 805.21 | – | – | – | –
101 kPa, x1 = 0.2895 | 843.35 | 831.1 | – | – | – | 1253.6 | – | –
101 kPa, x1 = 0.2959 | – | – | – | – | 1307.6 | – | 1200.7 | 1147.3
101 kPa, x1 = 0.3862 | – | 838.62 | – | – | 1325.8 | 1271.2 | – | –
101 kPa, x1 = 0.3918 | – | – | – | – | – | – | 1218.2 | –
101 kPa, x1 = 0.3957 | 851.69 | – | 826.66 | 813.44 | – | – | – | 1163.9
101 kPa, x1 = 0.4803 | 856.48 | 844.09 | 831.36 | 818.17 | 1339 | – | – | –
101 kPa, x1 = 0.4834 | – | – | – | – | – | 1285 | – | 1173.9
101 kPa, x1 = 0.4854 | – | – | – | – | – | – | 1230.3 | –
101 kPa, x1 = 0.593 | 861.02 | 848.66 | 835.94 | 822.82 | 1350.3 | 1294.7 | 1240 | 1185.1
101 kPa, x1 = 0.6838 | 863.65 | 851.31 | 838.63 | 825.57 | 1355.4 | 1300.7 | 1247.1 | 1193.8
101 kPa, x1 = 0.7832 | – | – | – | – | 1361 | 1306.5 | 1252.8 | 1199
101 kPa, x1 = 0.8438 | 866.82 | 854.5 | 841.86 | 828.96 | – | – | – | –
101 kPa, x1 = 0.8633 | – | – | – | – | – | – | 1257 | 1203.2
101 kPa, x1 = 0.8941 | 867.74 | 855.41 | 842.75 | 829.77 | 1365.1 | 1310.7 | – | –
101 kPa, x1 = 0.9286 | 868.3 | 855.96 | 843.29 | 830.31 | 1366.7 | 1312.2 | 1259.5 | 1206.3
101 kPa, x1 = 1 | 869.39 | 857 | 844.29 | 831.31 | 1370.6 | 1315.1 | 1260.8 | 1207.6
20000 kPa, x1 = 0.0511 | 824.1 | 812.6 | 801 | 789.2 | – | – | – | –
20000 kPa, x1 = 0.1003 | 832.7 | 821.5 | 809.9 | 798.3 | – | – | – | –
20000 kPa, x1 = 0.1962 | 845.8 | 834.6 | 823 | 811.4 | – | – | – | –
20000 kPa, x1 = 0.2989 | 856 | 844.8 | 833.1 | 821.4 | – | – | – | –
20000 kPa, x1 = 0.3996 | 863 | 851.7 | 840 | 828.3 | – | – | – | –
20000 kPa, x1 = 0.5015 | 868.2 | 856.9 | 845.2 | 833.5 | – | – | – | –
20000 kPa, x1 = 0.5982 | 871.9 | 860.6 | 848.8 | 837.1 | – | – | – | –
20000 kPa, x1 = 0.6898 | 874.7 | 863.4 | 851.6 | 839.9 | – | – | – | –
20000 kPa, x1 = 0.7929 | 877.2 | 865.8 | 854.1 | 842.5 | – | – | – | –
20000 kPa, x1 = 0.8885 | 879.1 | 867.7 | 856 | 844.4 | – | – | – | –
20000 kPa, x1 = 0.9435 | 880 | 868.6 | 856.9 | 845.3 | – | – | – | –
20000 kPa, x1 = 1 | 880.8 | 869.4 | 857.6 | 846 | – | – | – | –
25000 kPa, x1 = 0.0511 | 827.5 | 816.1 | 804.8 | 793.4 | – | – | – | –
25000 kPa, x1 = 0.1003 | 836.1 | 824.9 | 813.7 | 802.2 | – | – | – | –
25000 kPa, x1 = 0.1962 | 849 | 837.9 | 826.7 | 815.2 | – | – | – | –
25000 kPa, x1 = 0.2989 | 859.1 | 848 | 836.6 | 825.1 | – | – | – | –
25000 kPa, x1 = 0.3996 | 866 | 854.8 | 843.5 | 831.9 | – | – | – | –
25000 kPa, x1 = 0.5015 | 871.2 | 860 | 848.6 | 837 | – | – | – | –
25000 kPa, x1 = 0.5982 | 874.9 | 863.6 | 852.2 | 840.6 | – | – | – | –
25000 kPa, x1 = 0.6898 | 877.6 | 866.3 | 854.9 | 843.4 | – | – | – | –
25000 kPa, x1 = 0.7929 | 880.1 | 868.7 | 857.4 | 845.9 | – | – | – | –
25000 kPa, x1 = 0.8885 | 882 | 870.7 | 859.3 | 847.8 | – | – | – | –
25000 kPa, x1 = 0.9435 | 882.9 | 871.5 | 860.1 | 848.6 | – | – | – | –
25000 kPa, x1 = 1 | 883.7 | 872.3 | 860.9 | 849.3 | – | – | – | –
30000 kPa, x1 = 0.0511 | 830.7 | 819.6 | 808.5 | 797.1 | – | – | – | –
30000 kPa, x1 = 0.1003 | 839 | 828.2 | 817.2 | 806 | – | – | – | –
30000 kPa, x1 = 0.1962 | 851.9 | 841.1 | 830.1 | 818.8 | – | – | – | –
30000 kPa, x1 = 0.2989 | 861.9 | 851 | 839.9 | 828.6 | – | – | – | –
30000 kPa, x1 = 0.3996 | 868.8 | 857.8 | 846.7 | 835.3 | – | – | – | –
30000 kPa, x1 = 0.5015 | 873.9 | 863 | 851.7 | 840.4 | – | – | – | –
30000 kPa, x1 = 0.5982 | 877.5 | 866.5 | 855.3 | 843.9 | – | – | – | –
30000 kPa, x1 = 0.6898 | 880.2 | 869.2 | 858 | 846.7 | – | – | – | –
30000 kPa, x1 = 0.7929 | 882.7 | 871.6 | 860.5 | 849.2 | – | – | – | –
30000 kPa, x1 = 0.8885 | 884.6 | 873.5 | 862.3 | 851 | – | – | – | –
30000 kPa, x1 = 0.9435 | 885.4 | 874.4 | 863.1 | 851.9 | – | – | – | –
30000 kPa, x1 = 1 | 886.1 | 875.2 | 863.9 | 852.6 | – | – | – | –
35000 kPa, x1 = 0.0511 | 833.8 | 822.8 | 812 | 800.7 | – | – | – | –
35000 kPa, x1 = 0.1003 | 842.2 | 831.4 | 820.6 | 809.6 | – | – | – | –
35000 kPa, x1 = 0.1962 | 854.9 | 844.1 | 833.3 | 822.3 | – | – | – | –
35000 kPa, x1 = 0.2989 | 864.7 | 854 | 843 | 832 | – | – | – | –
35000 kPa, x1 = 0.3996 | 871.5 | 860.7 | 849.6 | 838.6 | – | – | – | –
35000 kPa, x1 = 0.5015 | 876.7 | 865.8 | 854.7 | 843.6 | – | – | – | –
35000 kPa, x1 = 0.5982 | 880.3 | 869.3 | 858.3 | 847.2 | – | – | – | –
35000 kPa, x1 = 0.6898 | 882.9 | 872 | 861 | 849.9 | – | – | – | –
35000 kPa, x1 = 0.7929 | 885.3 | 874.4 | 863.4 | 852.3 | – | – | – | –
35000 kPa, x1 = 0.8885 | 887.2 | 876.3 | 865.3 | 854.2 | – | – | – | –
35000 kPa, x1 = 0.9435 | 888.1 | 877.1 | 866.1 | 855 | – | – | – | –
35000 kPa, x1 = 1 | 888.9 | 877.9 | 866.8 | 855.7 | – | – | – | –
40000 kPa, x1 = 0.0511 | 836.8 | 826 | 815.4 | 804.6 | – | – | – | –
40000 kPa, x1 = 0.1003 | 845.1 | 834.5 | 824 | 813.1 | – | – | – | –
40000 kPa, x1 = 0.1962 | 857.6 | 847.1 | 836.5 | 825.6 | – | – | – | –
40000 kPa, x1 = 0.2989 | 867.4 | 856.9 | 846.2 | 835.2 | – | – | – | –
40000 kPa, x1 = 0.3996 | 874.1 | 863.5 | 852.8 | 841.8 | – | – | – | –
40000 kPa, x1 = 0.5015 | 879.3 | 868.6 | 857.8 | 846.7 | – | – | – | –
40000 kPa, x1 = 0.5982 | 882.8 | 872.1 | 861.3 | 850.3 | – | – | – | –
40000 kPa, x1 = 0.6898 | 885.5 | 874.8 | 864 | 853 | – | – | – | –
40000 kPa, x1 = 0.7929 | 887.9 | 877.1 | 866.3 | 855.4 | – | – | – | –
40000 kPa, x1 = 0.8885 | 889.7 | 878.9 | 868.2 | 857.2 | – | – | – | –
40000 kPa, x1 = 0.9435 | 890.6 | 879.7 | 869 | 858.1 | – | – | – | –
40000 kPa, x1 = 1 | 891.4 | 880.6 | 869.7 | 858.8 | – | – | – | –
